Data reported in patent US10800815B2, “Kv1.3 potassium channel antagonists” (cgtx-Peptide Development GmbH, priority 2014, dated 2020).
Where two headings read alike, the source gives them in different places.

Legend:
[1] = biological target: T1, human Kv1.3 (hKv1.3) channel (Homo sapiens, UniProt P22001); experiment: Planar patch clamp (Port-A-Patch) of Kv1.3 potassium currents in Sf 21 cells (Example 1); format: cell-based
T1 construct: expressed in transfected cells; host or cells: Sf21 (Spodoptera frugiperda) insect cells, baculovirus infection
Procedure: Potassium currents were measured by use of Spodoptera frugiperda (Sf 21) cells, which express the human Kv1.3 (hKv1.3) channel. The channel activity is induced upon membrane depolarization to voltages more positive than −40 mV. […] In Sf 21 cells hKv1.3 has an average current amplitude between 250 pA-5 nA at +40 mV.
1-3 days after infection potassium currents were recorded with the planar patch clamp technique, using the Port-A-Patch (Nanion Technologies GmbH). Ionic currents were activated by voltage steps to a depolarizing potential of +40 mV for 200 ms.
Sf 21 cells were cultured in Grace's insect cell medium supplemented with 10% FBS (Fetal Bovine Serum), 2 mM Glutamine, 1×Yeastolate (from 50× stock solution) and 0.1% Pluronic® F68 (BASF) to a cell density of 2-3×10^6 cells/ml.
External buffer: 160 mM NaCl • 4.5 mM KCl • 1 mM MgCl2 • 2 mM CaCl2 • 5 mM D-Glucose monohydrate • 10 mM HEPES/NaoH pH7.4
Internal buffer: 75 mM KCl • 10 mM NaCl • 70 mM K-Fluoride • 2 mM MgCl2 • 10 mM EGTA • 10 mM HEPES/KOH pH 7.2
(§1) Peptides were dissolved at 1 μg/μl in 20 mM NaPO4 buffer pH 8.2 (1 mg in 1 ml folding buffer) and dialysed against the same buffer 3×1 L, Float-a-Lyzer cut off 500 Da (Spectrapor) at room temperature.
HsTx 1 binding was tested at various concentrations of e.g. 100 pM, 1 nM, 10 nM, 50 nM, 100 nM, 500 nM, and 1 μM—depending on the tested channel. […]

[2] = biological target: T2, Kv1.5 (Homo sapiens, UniProt P22460); experiment: Patch-clamp measurement of Kv1.5 channel inhibition (Example 1); format: cell-based; conditions: up to a concentration of 10 μM
T2 construct: expressed in transfected cells; host or cells: Sf21 insect cells, baculovirus infection
Procedure: FIGS. 1A-1F Measurement of Kv1.3 (FIGS. 1B and 1E), Kv1.5 (FIGS. 1C and 1F) and Kv1.1 (FIGS. 1A and 1D) channel inhibition by patch-clamp.
as §1
HsTx 1 binding was tested at various concentrations of e.g. 100 pM, 1 nM, 10 nM, 50 nM, 100 nM, 500 nM, and 1 μM—depending on the tested channel. Representative measurements for Kv 1.1, Kv1.3 and Kv1.5 are depicted in FIGS. 1 a), 1 b), and 1 c) respectively.
Cgtx-544 binding was tested at various concentrations of e.g. 1 nM, 10 nM, 50 nM, 100 nM, 1 μM, and 5 μM—depending on the tested channel. Representative measurements for Kv1.1, Kv1.3 and Kv1.5 are depicted in FIGS. 1 d), 1e), and 1) f, respectively.

[3] = biological target: Kv1.3 (Homo sapiens, UniProt P22001); experiment: Kv1.3 block with prolonged incubation times; format: cell-based
[4] = biological target: T3, Kv1.3 channels expressed in Sf21 insect cells (Homo sapiens, UniProt P22001); experiment: Stability ex vivo in human blood plasma, read out as IC50 on Kv1.3 (Example 3); format: in vitro ADME
T3 construct: expressed in transfected cells; host or cells: Sf21 insect cells, baculovirus infection
Procedure: The aim was to test the stability of the cgtx-544 peptide in blood plasma of mammals after different incubation times at room temperature (RT) and 37° C. Stability was defined as IC50 value of cgtx-544 after different incubation times at RT and 37° C. Blood plasma was prepared from fresh blood samples from healthy rats or humans. Heparin was added to fresh blood samples to prevent clogging. Plasma preparation was performed by centrifugation for 2 min at 2000×g at RT.
As the cgtx-544 peptide used in these experiments was incompletely folded, a higher IC50 than normal was determined.
To investigate the stability and activity in plasma the peptide was added to freshly prepared human and rat blood plasma at a final concentration of 2 μM. The samples were split into two aliquots and incubated at 37° C. and at room temperature (RT, 20° C.). For the electrophysiological analysis serial dilutions of the samples were prepared.

[5] = tested on: white blood cells in peripheral blood; experiment: Haematology (WBC, neutrophil granulocytes, lymphocytes) in AIA rats; format: in vivo, rat
Procedure: For the blood withdrawal the animals were narcotized briefly, the tail was disinfected and the tail vein was punctured with a cannula, 50 μl of blood were withdrawn with a heparin coated pipette and mixed with 5 μl of a stabilising agent (CPD) and 1 μl heparin (1.5 U/μl diluted 1:4 in 0.9% NaCl).
White Blood Cells (WBC) were counted with a Coulter Counter in the automatic mode.
Blood samples were taken regularly for monitoring of hematological parameters. Haematological parameters were assessed in all animals weekly before induction, at day of induction and 10 days after induction (days −21, −14, −7, 0 and 10). […] Absolute counts of white blood cells (WBC), neutrophil granulocytes and lymphocytes were analyzed among others, the last two also stated in percentage of total WBC. EDTA whole blood of seven individuals from both vehicle and cgtx-544 peptide therapy group was measured with Sysmex XT-2000i.
For screening the state of health of all individuals, complete haemograms were used again. EDTA whole blood of seven individuals from both MTX high-dose and low-dose therapy groups were measured with Sysmex XT-2000i.V weekly before induction, at day of induction and 4 and 7 days after induction (day −21, −14, −7, 0, 4 and 7; MTX low-dose therapy group additionally on day −3, when i.v. application started).

[6] = tested on: antibody formation; format: in vivo, rat
Procedure: FIG. 27 Analysis of mBSA specific antibodies. In the experimental groups H and I all animals have produced antibodies against the antigen mBSA during the immunization and AIA induction period.
The remaining swelling in treated animals was assumed to be due to antibody/antigen reactions. Therefore, immunized as well as naïve animals were tested for the presence of mBSA specific antibodies. Antibodies against mBSA could be detected in all immunized animals of groups H and I seven days after arthritis induction (FIG. 27).

[7] = Biochemical properties: isoelectric point; format: physicochemical

T3 sequence (P22001 whole entry): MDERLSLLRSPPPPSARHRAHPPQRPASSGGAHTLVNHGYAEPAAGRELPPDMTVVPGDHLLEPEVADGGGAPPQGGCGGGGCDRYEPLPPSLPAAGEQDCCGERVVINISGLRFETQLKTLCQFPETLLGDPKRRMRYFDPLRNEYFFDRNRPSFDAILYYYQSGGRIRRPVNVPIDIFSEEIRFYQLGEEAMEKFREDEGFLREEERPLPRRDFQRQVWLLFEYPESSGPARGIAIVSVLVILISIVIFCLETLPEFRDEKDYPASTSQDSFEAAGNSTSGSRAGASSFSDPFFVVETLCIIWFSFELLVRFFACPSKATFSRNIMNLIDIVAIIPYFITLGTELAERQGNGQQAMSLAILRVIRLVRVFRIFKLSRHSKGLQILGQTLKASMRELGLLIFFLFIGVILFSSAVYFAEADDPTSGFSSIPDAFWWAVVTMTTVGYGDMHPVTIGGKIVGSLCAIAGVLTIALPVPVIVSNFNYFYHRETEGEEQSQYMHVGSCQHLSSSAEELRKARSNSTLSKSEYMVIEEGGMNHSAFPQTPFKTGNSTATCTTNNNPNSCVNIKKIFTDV
Sequence of Kv1.3 (P22001 whole entry): as above
T1 sequence (P22001 whole entry): as above
T2 sequence (P22460 whole entry): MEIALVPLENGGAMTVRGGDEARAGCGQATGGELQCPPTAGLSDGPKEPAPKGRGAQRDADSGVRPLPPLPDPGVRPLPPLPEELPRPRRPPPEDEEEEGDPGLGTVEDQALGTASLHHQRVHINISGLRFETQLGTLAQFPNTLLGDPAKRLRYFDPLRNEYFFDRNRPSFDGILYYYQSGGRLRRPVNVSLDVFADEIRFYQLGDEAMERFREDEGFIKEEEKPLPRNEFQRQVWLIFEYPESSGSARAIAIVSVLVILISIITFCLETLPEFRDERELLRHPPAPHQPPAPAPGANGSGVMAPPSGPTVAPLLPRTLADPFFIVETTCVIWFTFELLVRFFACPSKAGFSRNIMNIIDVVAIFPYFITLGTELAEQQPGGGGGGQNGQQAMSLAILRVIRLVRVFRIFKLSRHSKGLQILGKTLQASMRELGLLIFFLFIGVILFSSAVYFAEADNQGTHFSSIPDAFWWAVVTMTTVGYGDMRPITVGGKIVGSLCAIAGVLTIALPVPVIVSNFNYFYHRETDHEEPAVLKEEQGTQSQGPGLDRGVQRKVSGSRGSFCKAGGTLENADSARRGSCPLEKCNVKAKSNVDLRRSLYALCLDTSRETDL

With `CC[C@H](C)[C@H](NC(=O)[C@@H](N)[C@@H](C)O)C(=O)N[C@H](C(=O)N[C@@H](CC(N)=O)C(=O)N[C@H](C(=O)N[C@@H](CCCCN)C(=O)N[C@H]1CSSC[C@@H]2NC(=O)[C@H](CCCCN)NC(=O)CNC(=O)[C@H](Cc3ccc(O)cc3)NC(=O)[C@@H]3CCCN3C(=O)[C@@H]3CSSC[C@@H](C(=O)O)NC(=O)[C@H](CCCNC(=N)N)NC(=O)[C@H](CC(N)=O)NC(=O)[C@@H]4CSSC[C@H](NC(=O)[C@@H]5CCCN5C(=O)[C@@H]5CCCN5C(=O)[C@H](CC(C)C)NC(=O)[C@H](CSSC[C@H](NC(=O)[C@H](CCCCN)NC(=O)[C@H](CCCNC(=N)N)NC(=O)[C@H](CC(N)=O)NC(=O)[C@H](CCSC)NC2=O)C(=O)N[C@@H](CCCCN)C(=O)N4)NC(=O)[C@H](CCC(N)=O)NC(=O)[C@H](CCCCN)NC(=O)[C@@H]2CCCN2C(=O)[C@H](CO)NC(=O)[C@H]([C@@H](C)O)NC1=O)C(=O)N[C@@H](CCCCN)C(=O)N[C@@H](C)C(=O)N[C@@H](CCC(N)=O)C(=O)N[C@@H]([C@@H](C)O)C(=O)NCC(=O)N3)C(C)C)[C@@H](C)CC` [Compound 7] the “selectivity for Kv1.3 vs. Kv1.1 compared to HsTx 1” value [1] was “higher selectivity”, the IC50 ([1]; read-out: IC50 on Kv1.3 before the start of the plasma stability experiment, incompletely folded peptide, n=5 cells, Sf21) was 46.1 nM and the “binding to Kv1.5” value [2] was “no binding”. For the same molecule, the “block of Kv1.3 currents” value ([3]; long incubation times, i.e. 15 min) was 60%, the “block of Kv1.3 currents” value ([3]; short incubation times) was 20% and the “significant change in activity” value ([4]; 24 h, 37° C. and RT) was “could not be detected”. The “activity after incubation in plasma” value ([4]; 48 h at RT) was “remained unchanged”, the “activity after incubation in plasma” value ([4]; 14 days at 37° C.) was “no activity was detected” and the “activity after incubation in plasma” value ([4]; 14 days at RT) was “unchanged activity”. For the same molecule, the IC50 ([4]; read-out: IC50 on Kv1.3 after incubation in plasma, 48 h at 37° C.) was 37.3 nM, the IC50 ([4]; read-out: IC50 on Kv1.3 in plasma, time point 0 h) was 20.9 nM and the generalized immunosuppression ([5]; 1 mg/kg 1× daily i.v.) was “did not show a generalized immunosuppression”. The “WBC, neutrophil granulocytes and lymphocytes, absolute and relative cell counts” value ([5]; curative treatment, 1 mg/kg daily i.v.) was “comparable to vehicle treated individuals”, the “WBC, neutrophil granulocytes and lymphocytes, absolute and relative cell counts” value ([5]; preventive treatment, daily i.v. from day −3) was “comparable to vehicle treated individuals” and the “reactivity of immunized animals on cgtx-544(Mix) (anti-peptide antibodies)” value ([6]; after 10 days under peptide therapy) was “no reactivity”. For the same molecule, the “suppression of B-lymphocytes and antibody formation (mBSA specific antibodies)” value ([6]; seven days after arthritis induction) was “does not seem to suppress B-lymphocytes and antibody formation” and the Isoelectric point [7] was 9.29.
